Legend:
[1] = log P by HPLC on reversed phase columns (EEC directive 79/831 Annex V.A8); type: physicochemical; settings: method [a]: LC-MS at pH 2.7, 0.1% formic acid in water / acetonitrile, gradient 10% to 95% acetonitrile; for chromatographic logP: reversed phase HPLC columns
Procedure: Measurement of log P values was performed according EEC directive 79/831 Annex V.A8 by HPLC (High Performance Liquid Chromatography) on reversed phase columns with the following methods: ^[a]Measurement of LC-MS was done at pH 2.7 with 0.1% formic acid in water and with acetonitrile (contains 0.1% formic acid) as eluent with a linear gradient from 10% acetonitrile to 95% acetonitrile. Calibration was done with not branched alkan2-ones (with 3 to 16 carbon atoms) with known log P-values (measurement of log P values using retention times with linear interpolation between successive alkanones). lambda-maX-values were determined using UV-spectra from 200 nm to 400 nm and the peak values of the chromatographic signals.

Septoria tritici = test: In vivo preventive test on Septoria tritici (leaf spot on wheat); settings: dose 100 ppm, wheat plants, preventive spray, grading 24 days after contamination
Procedure: Wheat plants (“Scipion” variety), sown in starter cups on a 50/50 peat soil-pozzolana substrate and grown at 22° C., are treated at the 1-leaf stage (10 cm height) by spraying with the active ingredient prepared as described above. Plants, used as controls, are treated with the mixture of acetone/tween/DMSO/water not containing the active material. After 24 hours, the plants are contaminated by spraying the leaves with an aqueous suspension of cryopreserved Septoria tritici spores (500 000 spores per ml). The contaminated wheat plants are incubated for 72 hours at 18° C. and at 100% relative humidity, and then for 21 days at 90% relative humidity. Grading (% of efficacy) is carried out 24 days after the contamination, in comparison with the control plants.

Puccinia recondita = test: In vivo preventive test on Puccinia recondita (brown rust on wheat); settings: wheat plants, preventive spray, grading 12 days after contamination
Procedure: Wheat plants (“Scipion” variety), sown in starter cups on a 50/50 peat soil-pozzolana substrate and grown at 22° C., are treated at the 1-leaf stage (10 cm height) by spraying with the active ingredient prepared as described above. Plants, used as controls, are treated with the mixture of acetone/tween/DMSO/water not containing the active material. After 24 hours, the plants are contaminated by spraying the leaves with an aqueous suspension of Puccinia recondita spores (100 000 spores per ml). The spores are collected from an infected plant and are suspended in water containing 2.5 ml/l of Tween 80 at 10%. The contaminated wheat plants are incubated for 24 hours at 20° C. and at 100% relative humidity, and then for 10 days at 20° C. and at 70-80% relative humidity. Grading (% of efficacy) is carried out 12 days after the contamination, in comparison with the control plants.

Alternaria brassicae = test: In vivo preventive test on Alternaria brassicae (leaf spot on radish); settings: dose 500 ppm, radish plants, preventive spray, grading 6 days after contamination
Procedure: Radish plants (“Pernod Clair” variety), sown in starter cups on a 50/50 peat soil-pozzolana substrate and grown at 17° C., are treated at the cotyledon stage by spraying with the active ingredient prepared as described above. Plants, used as controls, are treated with the mixture of acetone/tween/DMSO/water not containing the active material. After 24 hours, the plants are contaminated by spraying the cotyledons with an aqueous suspension of Alternaria brassicae spores (50 000 spores per ml). The spores are collected from a 15-day-old culture. The contaminated radish plants are incubated at 20° C. and at 100% relative humidity. Grading (% of efficacy) is carried out 6 days after the contamination, in comparison with the control plants.

Pyrenophora teres = test: In vivo preventive test on Pyrenophora teres (net blotch on barley); settings: dose 500 ppm, barley plants, preventive spray, grading 14 days after contamination
Procedure: Barley plants (“Plaisant” variety), sown in starter cups on a 50/50 peat soil-pozzolana substrate and grown at 22° C., are treated at the 1-leaf stage (10 cm height) by spraying with the active ingredient prepared as described above. Plants, used as controls, are treated with the mixture of acetone/tween/DMSO/water not containing the active material. After 24 hours, the plants are contaminated by spraying the leaves with an aqueous suspension of Pyrenophora teres spores (12 000 spores per ml). The spores are collected from a 12-day-old culture. The contaminated barley plants are incubated for 48 hours at 20° C. and at 100% relative humidity, and then for 12 days at 20° C. at 70-80% relative humidity. Grading (% of efficacy) is carried out 14 days after the contamination, in comparison with the control plants.

Uromyces appendiculatus = test: In vivo preventive test on Uromyces appendiculatus (bean rust); settings: dose 500 ppm, bean plants, preventive spray, grading 11 days after contamination
Procedure: The active ingredients tested are prepared by homogenization in a mixture of acetone/tween/DMSO, and then diluted with water to obtain the desired active material concentration.
Bean plants (“Saxa” variety), sown in starter cups on a 50/50 peat soil-pozzolana substrate and grown at 24° C., are treated at the 2-leaf stage (9 cm height) by spraying with the active ingredient prepared as described above. Plants, used as controls, are treated with the mixture of acetone/tween/DMSO/water not containing the active material.
After 24 hours, the plants are contaminated by spraying the leaves with an aqueous suspension of Uromyces appendiculatus spores (150 000 spores per ml). The spores are collected from infected plants and are suspended in water containing 2.5 ml/l of Tween 80 at 10%. The contaminated bean plants are incubated for 24 hours at 20° C. and at 100% relative humidity, and then for 10 days at 20° C. and at 70-80% relative humidity.
Grading (% of efficacy) is carried out 11 days after the contamination, in comparison with the control plants.

Botrytis cinerea = test: In vivo preventive test on Botrytis cinerea (grey mould); settings: gherkin plants, preventive spray, grading 4 to 5 days after contamination
Procedure: Gherkin plants (“Vert petit de Paris” variety), sown in starter cups on a 50/50 peat soil-pozzolana substrate and grown at 24° C., are treated at the Z11 cotyledon stage by spraying with the active ingredient prepared as described above. Plants, used as controls, are treated with the mixture of acetone/tween/DMSO/water not containing the active material. After 24 hours, the plants are contaminated by spraying the cotyledons with an aqueous suspension of cryopreserved Botrytis cinerea spores (50 000 spores per ml). The spores are suspended in a nutrient solution composed of 10 g/L of PDB, 50 g/L of D-Fructose, 2 g/L of NH4NO3 and 1 g/L of KH2PO4. The contaminated gherkin plants are incubated at 17° C. and at 90% relative humidity. Grading (% of efficacy) is carried out 4 to 5 days after the contamination, in comparison with the control plants.

Sphaerotheca fuliginea = test: In vivo preventive test on Sphaerotheca fuliginea (powdery mildew on cucurbits); settings: dose 100 ppm, gherkin plants, preventive spray, grading 12 days after contamination
Procedure: Gherkin plants (“Vert petit de Paris” variety), sown in starter cups on a 50/50 peat soil-pozzolana substrate and grown at 24° C., are treated at the Z11 cotyledon stage by spraying with the active ingredient prepared as described above. Plants, used as controls, are treated with the mixture of acetone/tween/DMSO/water not containing the active material. After 24 hours, the plants are contaminated by spraying the cotyledons with an aqueous suspension of Sphaerotheca fuliginea spores (100 000 spores per ml). The spores are collected from infected plants. The contaminated gherkin plants are incubated at about 20° C. and at 70-80% relative humidity. Grading (% of efficacy) is carried out 12 days after the contamination, in comparison with the control plants.

With `CC1(C)CCCc2c(NC(=O)c3ccc(Cl)nc3C(F)F)ccc(F)c21` [Example 11] the logP [1] was 3.94^[a].

For `CC1c2cccc(NC(=O)c3cccnc3C(F)F)c2CCC1(C)C` (stereo not shown) [Example 2], the logP [1] was 3.55^[a].

For `CCON=C1CCCc2c(NC(=O)c3cc(C)cnc3C(F)F)cccc21` [Example 13], the logP [1] was 3.19^[a].

In the case of `CCON=C1CCCc2c(NC(=O)c3cccnc3C(F)F)cccc21` [Example 16], the logP [1] is reported as 2.90^[a].

With `CC1CCC(C)(C)c2cccc(NC(=O)c3cccnc3C(F)F)c21` (stereo not shown) [Example 3] the logP [1] was 3.37^[a].

`CC1(C)CCc2cccc(NC(=O)c3cccnc3C(F)F)c2C1` [Example 1, 2-(difluoromethyl)-N-(7,7-dimethyl-5,6,7,8-tetrahydronaphthalen-1-yl)nicotinamide] showed a chromatographic logP [1] of 3.23.

For `CC1(C)CCc2c(cccc2NC(=O)c2cccnc2C(F)F)C1` [Example 14], the logP [1] was 3.23^[a].

`Cc1cnc(C(F)F)c(C(=S)Nc2cccc3c2CCC(C)(C)C3)c1` [Example 17, 2-(difluoromethyl)-N-(6,6-dimethyl-5,6,7,8-tetrahydronaphthalen-1-yl)-5-methylpyridine-3-carbothioamide] gave a chromatographic logP [1] of 3.94.

In the case of `CC(C)C1CCCc2c(NC(=O)c3ccc(Cl)nc3C(F)F)cccc21` (stereo not shown) [Example 19], the logP [1] is reported as 4.31^[a], the biological efficacy (Septoria tritici) is reported as ≥ 70% and the biological efficacy (Puccinia recondita; dose 100 ppm) is reported as ≥ 70%.

For `CC1CCc2c(NC(=O)c3cccnc3C(F)F)cccc2C1C` (mixture of isomers) [Example 6], the logP [1] was 3.24^[a].

For `C=C1c2cccc(NC(=O)c3cccnc3C(F)F)c2CCC1(C)C` [Example 4], the logP [1] was 3.33^[a] and the biological efficacy (Alternaria brassicae) was ≥ 70%.

For `Cc1cnc(C(F)F)c(C(=O)Nc2ccc(F)c3c2CCCC3(C)C)c1` [Example 10], the logP [1] was 3.57^[a].

For `CC1(C)CCCc2c(NC(=O)c3cccnc3C(F)F)ccc(F)c21` [Example 12], the logP [1] was 3.29^[a].

With `CC1(C)CCc2c(NC(=O)c3cccnc3C(F)F)cccc2C1=O` [Example 5] the logP [1] was 2.28^[a] and the biological efficacy (Pyrenophora teres) was ≥ 70%.

For `Cc1cnc(C(F)F)c(C(=O)Nc2cccc3c2CCC(C)(C)C3)c1` [Example 7, 2-(difluoromethyl)-N-(6,6-dimethyl-5,6,7,8-tetrahydronaphthalen-1-yl)-5-methylnicotinamide], the chromatographic logP [1] was 3.52.

For `CC1(C)CCCc2c(NC(=S)c3cccnc3C(F)F)ccc(F)c21` [Example 15], the logP [1] was 3.79^[a].

For `CON=C1CCCc2c(NC(=O)c3cc(C)cnc3C(F)F)cccc21` [Example 8], the logP [1] was 2.75^[a].

With `CON=C1CCCc2c(NC(=O)c3cccnc3C(F)F)cccc21` [Example 9] the logP [1] was 2.49^[a], the biological efficacy (Uromyces appendiculatus) was ≥ 70% and the biological efficacy (Alternaria brassicae) was ≥ 90%. The biological efficacy (Puccinia recondita; dose 500 ppm) was ≥ 70% and the biological efficacy (Botrytis cinerea; dose 500 ppm) was ≥ 70%.

With `CC(C)C1CCCc2c(NC(=O)c3cccnc3C(F)F)cccc21` (stereo not shown) [Example 18] the logP [1] was 3.60^[a], the biological efficacy (Puccinia recondita; dose 100 ppm) was ≥ 90% and the biological efficacy (Sphaerotheca fuliginea) was ≥ 80%. For the same compound, the biological efficacy (Botrytis cinerea; dose 100 ppm) was ≥ 90%.

For `Cc1cnc(C(F)F)c(C(=O)Nc2cccc3c2CCCC3(C)C)c1` [Example 20], the logP [1] was 3.46^[a].

Source: patent US9428459B2, “Difluoromethyl-nicotinic- tetrahydronaphtyl carboxamides” (BAYER CROPSCIENCE AG, priority 2012, dated 2016)
